Test results reported in paper PMC5242325 (Antiviral therapy, 2015).

How the values were obtained:
[1] = female genital tract compared to BP; cited from earlier work
[2] = administration of a moderate fat meal; cited from earlier work
[3] = Raltegravir pharmacokinetics in cervicovaginal fluid; details: CVF, median (IQR); for AUC(0-t): AUC 0-12h
[4] = Raltegravir pharmacokinetics in blood plasma; details: for AUC(0-t): AUC 0-12h; for AUC(0-t) / concentration at 12 h / Cmax: BP, median (IQR)
[5] = female, human, in vivo, 400 mg, first dose, HIV-infected postmenopausal women (n=5)
[6] = female, human, in vivo, 400 mg, steady state, HIV-infected postmenopausal women (n=5)
[7] = female, human, in vivo, 400 mg, steady state, HIV-infected premenopausal women (n=6)
[8] = female, human, in vivo, 400 mg, C12, first dose, HIV-infected postmenopausal women (n=5)
[9] = female, human, in vivo, 400 mg, C12, steady state, HIV-infected postmenopausal women (n=5)
[10] = female, human, in vivo, 400 mg, C12, steady state, HIV-infected premenopausal women (n=6)
[11] = female, human, in vivo, 400 mg, Cmax, first dose, HIV-infected postmenopausal women (n=5)
[12] = female, human, in vivo, 400 mg, Cmax, steady state, HIV-infected premenopausal women (n=6)

C[C@@H]1CCO[C@H]2Cn3cc(C(=O)NCc4ccc(F)cc4F)c(=O)c(O)c3C(=O)N12 [dolutegravir]
CVF:BP AUC ratio [1]: 0.07

Cc1nnc(C(=O)NC(C)(C)c2nc(C(=O)NCc3ccc(F)cc3)c(O)c(=O)n2C)o1 [raltegravir]
increase in AUC [2]: 13% | AUC(0-t) [3, 5]: 13800 ng·h/mL | AUC(0-t) ([3]; female, human, in vivo, 400 mg, first dose, HIV-negative premenopausal women (n=7), BLD imputed 0.1 ng/ml): 1720 ng·h/mL | AUC(0-t) [3, 6]: 9570 ng·h/mL | AUC(0-t) [3, 7]: 11500 ng·h/mL | AUC(0-t) ([3]; female, human, in vivo, 400 mg, steady state, HIV-negative premenopausal women (n=7), BLD imputed 0.1 ng/ml): 3160 ng·h/mL | concentration at 12 h [3, 8]: 1290 ng/mL | concentration at 12 h [3, 9]: 958 ng/mL | concentration at 12 h [3, 10]: 447 ng/mL | Cmax [3, 11]: 4780 ng/mL | Cmax [3, 12]: 1920 ng/mL | Cmax ([3]; steady state, HIV-infected postmenopausal women (n=5)): 2841 (326-4430) ng/mL | AUC(0-t) [4, 5]: 4240 ng·h/mL | AUC(0-t) ([4]; female, human, in vivo, 400 mg, first dose, HIV-negative premenopausal women (n=7)): 3100 ng·h/mL | AUC(0-t) [4, 6]: 6180 ng·h/mL | AUC(0-t) [4, 7]: 5760 ng·h/mL | AUC(0-t) ([4]; female, human, in vivo, 400 mg, steady state, HIV-negative premenopausal women (n=7)): 8440 ng·h/mL | concentration at 12 h [4, 8]: 222 ng/mL | concentration at 12 h ([4]; female, human, in vivo, 400 mg, C12, first dose, HIV-negative premenopausal women (n=7)): 54 ng/mL | concentration at 12 h [4, 9]: 310 ng/mL | concentration at 12 h [4, 10]: 23 ng/mL | concentration at 12 h ([4]; female, human, in vivo, 400 mg, C12, steady state, HIV-negative premenopausal women (n=7)): 303 ng/mL | Cmax [4, 11]: 1660 ng/mL | Cmax ([4]; female, human, in vivo, 400 mg, Cmax, first dose, HIV-negative premenopausal women (n=7)): 790 ng/mL | Cmax ([4]; female, human, in vivo, 400 mg, Cmax, steady state, HIV-infected postmenopausal women (n=5)): 1170 ng/mL | Cmax [4, 12]: 1980 ng/mL | time after dosing by which all subjects had detectable concentrations in BP ([4]; first dose, HIV-negative premenopausal and HIV-infected postmenopausal women): ≤ 1 h | Cmax ([4]; steady state, HIV-negative premenopausal women (n=7)): 1874 (587-2166) ng/mL
